The source of these data is PMC5218480 (PLoS ONE, 2017).

Structures are written as SMILES.

The test has as its system MV-4-11 cells. The test is described as follows: Gene expression microarray analysis (Affymetrix PrimeView) and GSEA. The class given is cell-based, human. Further details: RFU PODN (11730768_x_at) / Fold change /veh PODN (11730768_x_at) / RFU LINC00158 (11744669_a_at) / Fold change /veh LINC00158 (11744669_a_at) / RFU DUSP10 (11751237_a_at) / Fold change /veh DUSP10 (11751237_a_at) / RFU ID3 (11757404_x_at) / Fold change /veh ID3 (11757404_x_at) / RFU PLEKHG5 (11737974_s_at) / Fold change /veh PLEKHG5 (11737974_s_at) / RFU LRRC4B (11730491_at) / Fold change /veh LRRC4B (11730491_at) / RFU GIMAP4 (11747438_a_at) / Fold change /veh GIMAP4 (11747438_a_at) / RFU KRT8 (11758183_x_at) / Fold change /veh KRT8 (11758183_x_at) / RFU CNN1 (11734310_a_at) / Fold change /veh CNN1 (11734310_a_at) / RFU VPS37D (11726825_at) / Fold change /veh VPS37D (11726825_at) / RFU C10orf10 (11716522_x_at) / Fold change /veh C10orf10 (11716522_x_at) / RFU KIR2DL2 /// KIR2DL4 /// KIR2DL5A /// KIR2DL5B /// KIR2DS1 /// KIR2DS2 /// KIR2DS3 /// KIR2DS4 /// KIR3DL3 /// KIR3DL3 /// KIR3DS1 (11738374_at) / Fold change /veh KIR2DL2 /// KIR2DL4 /// KIR2DL5A /// KIR2DL5B /// KIR2DS1 /// KIR2DS2 /// KIR2DS3 /// KIR2DS4 /// KIR3DL3 /// KIR3DL3 /// KIR3DS1 (11738374_at) / RFU C1QL1 (11718748_at) / Fold change /veh C1QL1 (11718748_at) / RFU TMPRSS4 (11747572_a_at) / Fold change /veh TMPRSS4 (11747572_a_at) / RFU HAMP (11756126_x_at) / Fold change /veh HAMP (11756126_x_at) / RFU RNFT2 (11725882_a_at) / Fold change /veh RNFT2 (11725882_a_at) / RFU NR4A2 (11747474_a_at) / Fold change /veh NR4A2 (11747474_a_at) / RFU ABCC12 (11746883_a_at) / Fold change /veh ABCC12 (11746883_a_at) / RFU TMEM136 (11760407_x_at) / Fold change /veh TMEM136 (11760407_x_at) / RFU CLDN22 /// WWC2 (11732394_at) / Fold change /veh CLDN22 /// WWC2 (11732394_at) / RFU HLA-DPB1 (11760878_x_at) / Fold change /veh HLA-DPB1 (11760878_x_at) / RFU SPINT1 (11716480_a_at) / Fold change /veh SPINT1 (11716480_a_at) / RFU GAP43 (11754022_s_at) / Fold change /veh GAP43 (11754022_s_at) / RFU A4GNT (11735810_at) / Fold change /veh A4GNT (11735810_at) / RFU PRB3 (11715151_x_at) / Fold change /veh PRB3 (11715151_x_at) / RFU TUBB4B (11761932_at) / Fold change /veh TUBB4B (11761932_at) / RFU CAPN14 (11732068_a_at) / Fold change /veh CAPN14 (11732068_a_at) / RFU TMCC2 (11721928_a_at) / Fold change /veh TMCC2 (11721928_a_at) / RFU IRGQ (11745062_a_at) / Fold change /veh IRGQ (11745062_a_at) / RFU FAM174B (11720279_a_at) / Fold change /veh FAM174B (11720279_a_at) / RFU TMPRSS4 (11748680_a_at) / Fold change /veh TMPRSS4 (11748680_a_at) / RFU FAM212B (11763350_a_at) / Fold change /veh FAM212B (11763350_a_at) / RFU PLEKHG5 (11743358_a_at) / Fold change /veh PLEKHG5 (11743358_a_at) / RFU ZSCAN30 (11745921_a_at) / Fold change /veh ZSCAN30 (11745921_a_at) / RFU CMKLR1 (11741424_a_at) / Fold change /veh CMKLR1 (11741424_a_at) / RFU LOC101060620 /// MAPK8IP1 (11723275_at) / Fold change /veh LOC101060620 /// MAPK8IP1 (11723275_at) / RFU SPTSSB (11747773_x_at) / Fold change /veh SPTSSB (11747773_x_at) / RFU PRSS12 (11739890_at) / Fold change /veh PRSS12 (11739890_at) / RFU BIN1 (11741810_x_at) / Fold change /veh BIN1 (11741810_x_at) / RFU WNT11 (11732464_a_at) / Fold change /veh WNT11 (11732464_a_at) / RFU C10orf10 (11716521_a_at) / Fold change /veh C10orf10 (11716521_a_at) / RFU C5orf56 (11738089_at) / Fold change /veh C5orf56 (11738089_at) / RFU CYB561 (11721691_x_at) / Fold change /veh CYB561 (11721691_x_at) / RFU ANKRD19P (11752326_a_at) / Fold change /veh ANKRD19P (11752326_a_at) / RFU OR2T12 /// OR2T33 /// OR2T8 (11738714_s_at) / Fold change /veh OR2T12 /// OR2T33 /// OR2T8 (11738714_s_at) / RFU VCAN (11748164_a_at) / Fold change /veh VCAN (11748164_a_at) / RFU JSRP1 (11732532_at) / Fold change /veh JSRP1 (11732532_at) / RFU KRTAP10-11 (11738290_x_at) / Fold change /veh KRTAP10-11 (11738290_x_at) / RFU MYO3A (11730013_a_at) / Fold change /veh MYO3A (11730013_a_at) / RFU EBF3 (11725865_a_at) / Fold change /veh EBF3 (11725865_a_at) / RFU CAMK2N1 (11719241_x_at) / Fold change /veh CAMK2N1 (11719241_x_at) / RFU C5orf56 (11738088_a_at) / Fold change /veh C5orf56 (11738088_a_at) / RFU OLFML3 (11715873_a_at) / Fold change /veh OLFML3 (11715873_a_at) / RFU LOC100653217 /// NTM (11731650_a_at) / Fold change /veh LOC100653217 /// NTM (11731650_a_at) / RFU MAPK11 (11762145_a_at) / Fold change /veh MAPK11 (11762145_a_at) / RFU FIZ1 (11724087_x_at) / Fold change /veh FIZ1 (11724087_x_at) / RFU OASL (11726364_x_at) / Fold change /veh OASL (11726364_x_at) / RFU SOX15 (11748057_x_at) / Fold change /veh SOX15 (11748057_x_at) / RFU CD79A (11719716_a_at) / Fold change /veh CD79A (11719716_a_at) / RFU HIST1H1D (11736915_at) / Fold change /veh HIST1H1D (11736915_at) / RFU CASKIN2 (11723855_a_at) / Fold change /veh CASKIN2 (11723855_a_at) / RFU LOC730098 (11760151_x_at) / Fold change /veh LOC730098 (11760151_x_at) / RFU OR4N2 (11742367_at) / Fold change /veh OR4N2 (11742367_at) / RFU PRRT2 (11749266_a_at) / Fold change /veh PRRT2 (11749266_a_at) / RFU SNX32 (11753110_a_at) / Fold change /veh SNX32 (11753110_a_at) / RFU CDHR5 (11726645_a_at) / Fold change /veh CDHR5 (11726645_a_at) / RFU RCAN1 (11760418_a_at) / Fold change /veh RCAN1 (11760418_a_at) / RFU FAM167A (11723789_a_at) / Fold change /veh FAM167A (11723789_a_at) / RFU FAM26E (11764081_at) / Fold change /veh FAM26E (11764081_at) / RFU ISYNA1 (11749810_s_at) / Fold change /veh ISYNA1 (11749810_s_at) / RFU ACY1 (11761880_at) / Fold change /veh ACY1 (11761880_at) / RFU 11764098_at / Fold change /veh 11764098_at / RFU SAMD14 (11745864_x_at) / Fold change /veh SAMD14 (11745864_x_at) / RFU NPB (11741838_a_at) / Fold change /veh NPB (11741838_a_at) / RFU TMPRSS6 (11731388_a_at) / Fold change /veh TMPRSS6 (11731388_a_at) / RFU KRTAP10-2 (11738614_at) / Fold change /veh KRTAP10-2 (11738614_at) / RFU ARHGAP8 /// PRR5-ARHGAP8 (11727945_x_at) / Fold change /veh ARHGAP8 /// PRR5-ARHGAP8 (11727945_x_at) / RFU KRTAP5-7 /// NADSYN1 (11734609_at) / Fold change /veh KRTAP5-7 /// NADSYN1 (11734609_at) / RFU RASL12 (11751679_a_at) / Fold change /veh RASL12 (11751679_a_at) / RFU CDKN2B (11736163_a_at) / Fold change /veh CDKN2B (11736163_a_at) / RFU PRF1 (11729649_at) / Fold change /veh PRF1 (11729649_at) / RFU, ZNF638 /// ZNF638-IT1 / Fold change vs veh, ZNF638 /// ZNF638-IT1 / RFU, PANK3 / Fold change vs veh, PANK3 / RFU, SH3YL1 / Fold change vs veh, SH3YL1 / RFU, ZEB2 / Fold change vs veh, ZEB2 / RFU, NRIP1 / Fold change vs veh, NRIP1 / RFU, PTTG1IP / Fold change vs veh, PTTG1IP / RFU, CAPN2 / Fold change vs veh, CAPN2 / RFU, MED14 / Fold change vs veh, MED14 / RFU, SNORA58 / Fold change vs veh, SNORA58 / RFU, C1orf63 / Fold change vs veh, C1orf63 / RFU, LRRFIP1 / Fold change vs veh, LRRFIP1 / RFU, NDUFAF7 / Fold change vs veh, NDUFAF7 / RFU, SLC12A2 / Fold change vs veh, SLC12A2 / RFU, IBTK / Fold change vs veh, IBTK / RFU, ESF1 / Fold change vs veh, ESF1 / Fold change vs veh, TMEM50B / RFU, TAOK1 / Fold change vs veh, TAOK1 / RFU, ACBD3 / Fold change vs veh, ACBD3 / RFU, TMA16 / Fold change vs veh, TMA16 / RFU, RWDD3 / Fold change vs veh, RWDD3 / RFU, BCAT1 / Fold change vs veh, BCAT1 / RFU, EDEM3 / Fold change vs veh, EDEM3 / RFU, TMEM33 / Fold change vs veh, TMEM33 / RFU, WDR75 / Fold change vs veh, WDR75 / RFU, AHCTF1 / Fold change vs veh, AHCTF1 / RFU, TFRC / Fold change vs veh, TFRC / RFU, ZDHHC17 / Fold change vs veh, ZDHHC17 / RFU, NOM1 / Fold change vs veh, NOM1 / RFU, ARL8B / Fold change vs veh, ARL8B / RFU, ZBTB11 / Fold change vs veh, ZBTB11 / RFU, TAMM41 / Fold change vs veh, TAMM41 / RFU, KIAA1704 /// LOC100996395 / Fold change vs veh, KIAA1704 /// LOC100996395 / RFU, ING1 / Fold change vs veh, ING1 / RFU, TRMT61B / Fold change vs veh, TRMT61B / RFU, FUBP3 / Fold change vs veh, FUBP3 / RFU, TP53 / Fold change vs veh, TP53 / RFU, TNKS2 / Fold change vs veh, TNKS2 / RFU, ZFP14 / Fold change vs veh, ZFP14 / RFU, ACTR2 / Fold change vs veh, ACTR2 / RFU, PPP3R1 / Fold change vs veh, PPP3R1 / RFU, PIK3R1 / Fold change vs veh, PIK3R1 / RFU, HNRNPA1 / Fold change vs veh, HNRNPA1 / RFU, RNF170 / Fold change vs veh, RNF170 / RFU, ZNF28 / Fold change vs veh, ZNF28 / RFU, RNGTT / Fold change vs veh, RNGTT / RFU, OGT / Fold change vs veh, OGT / RFU, BRD1 / Fold change vs veh, BRD1 / RFU, MARS / Fold change vs veh, MARS / RFU, ZNF655 / Fold change vs veh, ZNF655 / RFU, FAHD1 / Fold change vs veh, FAHD1 / RFU, BDP1 / Fold change vs veh, BDP1 / RFU, LRRCC1 / Fold change vs veh, LRRCC1 / RFU, ARID1A / Fold change vs veh, ARID1A / RFU, ZNF146 / Fold change vs veh, ZNF146 / RFU, ZNF330 / Fold change vs veh, ZNF330 / RFU, GPN3 / Fold change vs veh, GPN3 / RFU, C9orf123 / Fold change vs veh, C9orf123 / RFU, N4BP2L2 / Fold change vs veh, N4BP2L2 / RFU, ARFIP1 / Fold change vs veh, ARFIP1 / RFU, FAM179B / Fold change vs veh, FAM179B / RFU, BCL10 / Fold change vs veh, BCL10 / RFU, UHRF1BP1L / Fold change vs veh, UHRF1BP1L / RFU, BET1 / Fold change vs veh, BET1 / RFU, CNOT2 / Fold change vs veh, CNOT2 / RFU, ZNF268 / Fold change vs veh, ZNF268 / Fold change vs veh, ZNF507 / RFU, DGCR2 / Fold change vs veh, DGCR2 / RFU, WDSUB1 / Fold change vs veh, WDSUB1 / Fold change vs veh, HSP90B1 /// MIR3652 / RFU, ADSS / Fold change vs veh, ADSS / RFU, GK / Fold change vs veh, GK / RFU, ZNF148 / Fold change vs veh, ZNF148 / RFU, TAF9 / Fold change vs veh, TAF9 / RFU, SLC1A5 / Fold change vs veh, SLC1A5 / RFU, SLMO2 / Fold change vs veh, SLMO2 / RFU, ABCC4 / Fold change vs veh, ABCC4 / RFU, LOC101060439 /// RAP1B / Fold change vs veh, LOC101060439 /// RAP1B / RFU, RFX7 / Fold change vs veh, RFX7 / RFU, GTPBP10 / Fold change vs veh, GTPBP10 / RFU, CNEP1R1 / Fold change vs veh, CNEP1R1 / RFU, BIVM-ERCC5 /// ERCC5 / Fold change vs veh, BIVM-ERCC5 /// ERCC5 / RFU, ILF3 / Fold change vs veh, ILF3 / RFU 11762660_at / Fold change /veh 11762660_at / RFU VCAN (11757783_s_at) / Fold change /veh VCAN (11757783_s_at) / RFU DDX43 (11728927_at) / Fold change /veh DDX43 (11728927_at) / RFU KRT8 (11758188_x_at) / Fold change /veh KRT8 (11758188_x_at) / RFU NKD1 (11759106_at) / Fold change /veh NKD1 (11759106_at) / RFU SRD5A1 (11742802_a_at) / Fold change /veh SRD5A1 (11742802_a_at) / RFU TPSAB1 /// TPSB2 (11721975_s_at) / Fold change /veh TPSAB1 /// TPSB2 (11721975_s_at) / RFU GSTM3 (11746129_a_at) / Fold change /veh GSTM3 (11746129_a_at) / RFU IL23R (11737362_x_at) / Fold change /veh IL23R (11737362_x_at) / RFU TMEM51 (11727254_a_at) / Fold change /veh TMEM51 (11727254_a_at) / RFU PIWIL2 (11732686_x_at) / Fold change /veh PIWIL2 (11732686_x_at) / RFU ORM1 (11744905_x_at) / Fold change /veh ORM1 (11744905_x_at) / RFU CCDC152 (11743942_at) / Fold change /veh CCDC152 (11743942_at) / RFU ECM1 (11717891_a_at) / Fold change /veh ECM1 (11717891_a_at) / RFU IL23R (11748794_a_at) / Fold change /veh IL23R (11748794_a_at) / RFU TNFAIP8L3 (11732012_x_at) / Fold change /veh TNFAIP8L3 (11732012_x_at) / RFU MBOAT4 (11741988_at) / Fold change /veh MBOAT4 (11741988_at) / RFU 11764193_at / Fold change /veh 11764193_at / RFU TMEM53 (11763286_at) / Fold change /veh TMEM53 (11763286_at) / RFU MAGEB2 (11727129_at) / Fold change /veh MAGEB2 (11727129_at) / RFU TMEM200A (11744735_a_at) / Fold change /veh TMEM200A (11744735_a_at) / RFU CCDC152 (11751479_a_at) / Fold change /veh CCDC152 (11751479_a_at) / RFU FAM211A (11726209_a_at) / Fold change /veh FAM211A (11726209_a_at) / RFU RGS16 (11746705_a_at) / Fold change /veh RGS16 (11746705_a_at) / RFU VCAN (11755009_s_at) / Fold change /veh VCAN (11755009_s_at) / RFU RHOB (11743442_s_at) / Fold change /veh RHOB (11743442_s_at) / RFU RGS16 (11720943_a_at) / Fold change /veh RGS16 (11720943_a_at) / RFU RGS16 (11720944_at) / Fold change /veh RGS16 (11720944_at) / RFU, VPS4B / Fold change vs veh, VPS4B / RFU, CREB1 / Fold change vs veh, CREB1 / RFU, DNAJC13 / Fold change vs veh, DNAJC13 / RFU, GNAQ / Fold change vs veh, GNAQ / RFU, CDK5R1 / Fold change vs veh, CDK5R1 / RFU, ZRANB3 / Fold change vs veh, ZRANB3 / RFU, CUL4A / Fold change vs veh, CUL4A / RFU, CCNY / Fold change vs veh, CCNY / RFU, UFL1 / Fold change vs veh, UFL1 / RFU, COG3 / Fold change vs veh, COG3 / RFU, DIAPH2 / Fold change vs veh, DIAPH2 / RFU, SKA2 / Fold change vs veh, SKA2 / RFU, AFF3 / Fold change vs veh, AFF3 / RFU, LMF1 / Fold change vs veh, LMF1 / RFU, IPO11 / Fold change vs veh, IPO11 / RFU, DFFB / Fold change vs veh, DFFB / RFU, FOXP1 / Fold change vs veh, FOXP1 / RFU, CARD8 / Fold change vs veh, CARD8 / RFU, STRN3 / Fold change vs veh, STRN3 / RFU, ADK / Fold change vs veh, ADK / RFU, RASSF2 / Fold change vs veh, RASSF2 / RFU, WIPF1 / Fold change vs veh, WIPF1 / RFU, LARP1B / Fold change vs veh, LARP1B / RFU, RASA1 / Fold change vs veh, RASA1 / RFU, RB1 / Fold change vs veh, RB1 / RFU, PPFIA1 / Fold change vs veh, PPFIA1 / RFU, MAT2A / Fold change vs veh, MAT2A / RFU, CCT5 / Fold change vs veh, CCT5 / RFU, WDR92 / Fold change vs veh, WDR92 / RFU, CUX1 / Fold change vs veh, CUX1 / RFU, TTC7A / Fold change vs veh, TTC7A / RFU, TMEM135 / Fold change vs veh, TMEM135 / RFU, DEPTOR / Fold change vs veh, DEPTOR / RFU, CPM / Fold change vs veh, CPM / RFU, DNAJB6 / Fold change vs veh, DNAJB6 / RFU, CACNA2D3 / Fold change vs veh, CACNA2D3 / RFU, DTX4 / Fold change vs veh, DTX4 / RFU, TFCP2 / Fold change vs veh, TFCP2 / RFU, GMCL1 /// GMCL1P1 / Fold change vs veh, GMCL1 /// GMCL1P1 / RFU, AEBP2 / Fold change vs veh, AEBP2 / RFU, SNHG1 /// SNORD22 /// SNORD25 /// SNORD26 /// SNORD27 /// SNORD28 /// SNORD29 /// SNORD31 / Fold change vs veh, SNHG1 /// SNORD22 /// SNORD25 /// SNORD26 /// SNORD27 /// SNORD28 /// SNORD29 /// SNORD31 / Fold change (Aza/veh), C12orf56 (ProbeSet 11735607_a_at) / Fold change (ACY-1035/veh), C12orf56 (ProbeSet 11735607_a_at) / Fold change (Aza/veh), FGFR1OP (ProbeSet 11751329_s_at) / Fold change (ACY-1035/veh), FGFR1OP (ProbeSet 11751329_s_at) / Fold change (Aza/veh), VPS36 (ProbeSet 11739960_a_at) / Fold change (ACY-1035/veh), VPS36 (ProbeSet 11739960_a_at) / RFU SYPL1 (11715823_x_at) / Fold change /veh SYPL1 (11715823_x_at) / RFU IGFBP7 (11715501_s_at) / Fold change /veh IGFBP7 (11715501_s_at) / RFU REEP3 (11722064_at) / Fold change /veh REEP3 (11722064_at) / RFU IGLL1 (11728026_x_at) / Fold change /veh IGLL1 (11728026_x_at): dose or concentration left out as unconfirmed. The conditions noted are these: MV-4-11 cells, 48 hours.

In the case of `Nc1ncn([C@@H]2O[C@H](CO)[C@@H](O)[C@H]2O)c(=O)n1` [azacitidine], the “Fold change /veh SPTSSB (11747773_x_at)” value came out at 1.09.
